Some test systems named below: UACC-62; SK-MEL-5; HL-60; SK-MEL-2; OVCAR-4; MOLT-4; UACC-257; SF-539; UO-31; EKVX; HCC 2998; SN12C; NCI-H522; U-251; HCT-15; RPMI-8226; K562.
Assay in all cases: NCI tumour cell line growth inhibition, 48 h

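Tested at 5 concentrations; 48 h exposure; 96-well plates; endpoints linearly interpolated, else capped at highest concentration. GI50: concentration for 50% inhibition of growth.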 Calls of active or inactive are those of the source. No stated cut-off is given here; in the data, active = GI50 up to about 1.1 µM and inactive = higher. Some results are limits rather than exact numbers.

In the case of `CCOC(=O)C1=C(Nc2ccc(Br)cc2)OCC1=O`, the GI50 in the assay on UACC-62 is > 100 µM (inactive); in the assay on SK-MEL-5, > 100 µM (inactive); in the assay with HL-60, 17.9 µM (inactive); in the assay on SK-MEL-2, > 100 µM (inactive); with OVCAR-4, > 100 µM (inactive); with MOLT-4, > 100 µM (inactive). Also, the GI50 with UACC-257, with SF-539, in the assay on UO-31, in the assay on EKVX, in the assay with HCC 2998 and with SN12C was > 100 µM (inactive) in each case. Moreover, the GI50 with NCI-H522 is > 100 µM (inactive); in the assay with U-251, > 100 µM (inactive); in the assay with HCT-15, over 100 µM.
With `O=C1CCCC/C(=C/c2ccccc2)N1`, the GI50 in the assay on RPMI-8226, with UACC-62, in the assay with HL-60, with SK-MEL-2, with OVCAR-4 and in the assay on MOLT-4 was > 100 µM (inactive) throughout. In addition, the GI50 with K562, in the assay on UACC-257, with SF-539, with UO-31, with EKVX and with HCC 2998 was > 100 µM (inactive) each time. For the same molecule, the GI50 with SN12C was > 100 µM (inactive); with NCI-H522 it was > 100 µM (inactive); in the assay with U-251, > 100 µM (inactive); with HCT-15, over 100 µM.
For the molecule `NC1=NN(c2ccccc2)C(=O)C1C(=O)C(=O)Nc1nccs1` (stereo not given), the GI50 with RPMI-8226, with UACC-62, in the assay with SK-MEL-5, in the assay on HL-60, with SK-MEL-2 and with OVCAR-4 was > 100 µM (inactive) in each case. Moreover, the GI50 in the assay with MOLT-4, in the assay on K562, in the assay on UACC-257, in the assay with SF-539, with UO-31 and in the assay with EKVX was > 100 µM (inactive) each time. In addition, the GI50 in the assay on HCC 2998 is > 100 µM (inactive); in the assay on SN12C, > 100 µM (inactive); in the assay with NCI-H522, > 100 µM (inactive); in the assay with U-251, > 100 µM (inactive); in the assay with HCT-15, over 100 µM.
`O=C(C(=O)N1CC2C=CC1CC2)c1c[nH]c2ccccc12` (stereo not given): the GI50 with RPMI-8226, with UACC-62, in the assay with SK-MEL-5, with HL-60, in the assay with SK-MEL-2 and with OVCAR-4 was > 100 µM (inactive) in each case. The GI50 in the assay on MOLT-4, in the assay on K562, in the assay on UACC-257, in the assay with SF-539, with UO-31 and in the assay with HCC 2998 was > 100 µM (inactive) throughout. The GI50 with SN12C is > 100 µM (inactive); with NCI-H522, > 100 µM (inactive); in the assay with U-251, > 100 µM (inactive); in the assay with HCT-15 it was over 100 µM.
Take `Cc1ccc2nc(NC(=O)C(=O)C(C(=O)c3ccc4ccccc4c3)C3OC(=O)c4ccccc43)sc2c1` (stereo not given): the GI50 in the assay on RPMI-8226 is 9.25 µM (inactive); with UACC-62, 6.98 µM (inactive); in the assay on SK-MEL-5, 10.5 µM (inactive); with SK-MEL-2, 14.4 µM (inactive); with OVCAR-4, 22.7 µM (inactive); in the assay on UACC-257, 13.1 µM (inactive). In addition, the GI50 was 2.63 µM (inactive) in the assay with SF-539; 14.6 µM (inactive) with UO-31; 17.5 µM (inactive) in the assay on EKVX; 11.3 µM (inactive) with HCC 2998; 13.5 µM (inactive) with SN12C; 12 µM (inactive) with NCI-H522. Further, the GI50 in the assay on U-251 was 2.81 µM (inactive); in the assay with HCT-15 it was over 10 µM.
`COc1ccc(-c2cc(=O)c3ccccc3[nH]2)c(OC)c1`: the GI50 is > 100 µM (inactive) with RPMI-8226; > 100 µM (inactive) with UACC-62; 73.6 µM (inactive) in the assay with HL-60; > 100 µM (inactive) with MOLT-4; > 100 µM (inactive) with K562; > 100 µM (inactive) with UACC-257. The GI50 was > 100 µM (inactive) with SF-539; > 100 µM (inactive) with UO-31; > 100 µM (inactive) with EKVX; > 10 µM (inactive) with HCC 2998; > 100 µM (inactive) in the assay on SN12C; > 100 µM (inactive) in the assay on NCI-H522. Besides, the figures for the GI50 in the assay with U-251 and in the assay with HCT-15 were > 100 µM (inactive) and over 100 µM, respectively.
As for `CC(=O)O[C@H]1CC[C@@]2(C)C(=CC[C@@H]3C2CC[C@]2(C)Nc4[nH]ncc4CC32)C1` (stereo not given in full), the GI50 in the assay with RPMI-8226 is 25.5 µM (inactive); in the assay with UACC-62, 26.1 µM (inactive); with SK-MEL-5, 19.1 µM (inactive); in the assay with HL-60, 20.5 µM (inactive); in the assay with SK-MEL-2, 28.2 µM (inactive); in the assay on OVCAR-4 it was 18.5 µM (inactive). Moreover, the GI50 in the assay with MOLT-4 was 15.4 µM (inactive); with K562, 20.7 µM (inactive); with UACC-257 it was 16.6 µM (inactive); with SF-539 it was 20 µM (inactive); with UO-31, 87.7 µM (inactive); in the assay on EKVX, 29.8 µM (inactive). Moreover, the GI50 is > 100 µM (inactive) in the assay on HCC 2998, 15 µM (inactive) with U-251 and 17.5 µM in the assay on HCT-15.
As to `CC(C)(C)C1CC[C@H]2c3c([nH]c4ccc(Br)cc34)[C@H]3C(=O)N(c4ccccc4)C(=O)[C@H]3[C@H]2C1` (stereo not given in full), the GI50 in the assay on RPMI-8226 was 98.2 µM (inactive); in the assay with UACC-62, 23.3 µM (inactive); in the assay on SK-MEL-5, 28.1 µM (inactive); in the assay with HL-60, 7.71 µM (inactive); in the assay on SK-MEL-2 it was 50.9 µM (inactive); in the assay on OVCAR-4 it was 11.2 µM (inactive). Further, the GI50 in the assay with MOLT-4 is 15.6 µM (inactive); with K562 it was 11.5 µM (inactive); in the assay on UACC-257, > 100 µM (inactive); with UO-31, 74.8 µM (inactive); in the assay on EKVX, 92.9 µM (inactive); in the assay with HCC 2998, > 100 µM (inactive). The figures for the GI50 in the assay with SN12C, with NCI-H522 and in the assay with U-251 were 13.5 µM (inactive), 19.4 µM (inactive) and 10.4 µM (inactive), respectively.
`N#CCC(=O)N/N=C1/C(=O)NC(=O)C(=O)C1c1nc2ccccc2s1` (stereo not given): the GI50 in the assay with RPMI-8226, in the assay on UACC-62, in the assay with SK-MEL-5, with SK-MEL-2, with OVCAR-4 and in the assay with MOLT-4 was > 100 µM (inactive) throughout. Moreover, the GI50 with K562, in the assay with UACC-257, in the assay on SF-539, with UO-31, in the assay with EKVX and in the assay with HCC 2998 was > 100 µM (inactive) each time. The GI50 in the assay on SN12C was > 100 µM (inactive); with NCI-H522, > 100 µM (inactive); in the assay on U-251, > 100 µM (inactive); in the assay with HCT-15, over 100 µM.
As for `CCC(C)Cn1c(C)nc2c1C(=O)c1ccccc1C2=O` (stereo not given), the GI50 with UACC-62 is 9.98 µM (inactive); in the assay on SK-MEL-5, 15 µM (inactive); with HL-60, 5.06 µM (inactive); in the assay with SK-MEL-2, 33.1 µM (inactive); in the assay with OVCAR-4, 38 µM (inactive); in the assay with MOLT-4, 2.91 µM (inactive). Also, the GI50 with K562 is 5.42 µM (inactive); in the assay on UACC-257, 23.5 µM (inactive); with SF-539, 17.7 µM (inactive); in the assay with UO-31 it was 24.5 µM (inactive); with EKVX it was 31.9 µM (inactive); in the assay on HCC 2998 it was 47.4 µM (inactive). In addition, the GI50 in the assay with SN12C is 36.1 µM (inactive); in the assay on NCI-H522 it was 30 µM (inactive); in the assay on U-251 it was 20.5 µM (inactive); with HCT-15, 17.5 µM.
With `CCCCCCCCCCCCOP(N)(=O)OCCCCCCCCCCCC`, the GI50 in the assay on RPMI-8226, with UACC-62, with HL-60, with MOLT-4, in the assay on K562 and in the assay on UACC-257 was > 100 µM (inactive) each time. For the same molecule, the GI50 in the assay on SF-539, with UO-31, in the assay on EKVX, with HCC 2998, with SN12C and in the assay on NCI-H522 was > 100 µM (inactive) throughout. In addition, the GI50 is > 100 µM (inactive) in the assay with U-251 and over 100 µM in the assay with HCT-15.
Consider `CC1(C)C(=O)C(C)(C)C1=S`, for which the GI50 in the assay on RPMI-8226, with UACC-62, in the assay on SK-MEL-5, in the assay on HL-60, in the assay on SK-MEL-2 and in the assay with OVCAR-4 was > 100 µM (inactive) throughout. Moreover, the GI50 in the assay with MOLT-4, in the assay with K562, with UACC-257, in the assay with UO-31, in the assay with EKVX and with HCC 2998 was > 100 µM (inactive) in each case. The GI50 was > 100 µM (inactive) in the assay on SN12C, > 100 µM (inactive) in the assay with NCI-H522, > 100 µM (inactive) in the assay on U-251 and over 100 µM with HCT-15.
For `CCOP(=O)(C/C(O)=C1\C(=O)C(CCCNC(=O)OC(C)(C)C)N(Cc2ccc(OC)c(OC)c2)C1=O)OCC` (stereo not given), the GI50 with RPMI-8226, in the assay on UACC-62, in the assay on SK-MEL-5, with HL-60, with SK-MEL-2 and in the assay with OVCAR-4 was > 100 µM (inactive) in each case. Further, the GI50 with MOLT-4, with K562, with UACC-257, with SF-539, with UO-31 and with EKVX was > 100 µM (inactive) in each case. Besides, the GI50 with HCC 2998 is > 100 µM (inactive); with SN12C, > 100 µM (inactive); in the assay with NCI-H522 it was 2.59 µM (inactive); with U-251 it was > 100 µM (inactive).

The values above are taken from ChEMBL document CHEMBL1201862, “PubChem BioAssay data set” (2004).
